The target of one data set is T1, JAK2 (Homo sapiens, UniProt O60674).
T1 construct: purchased Carna Biosciences
The data set is described as follows: Lance Ultra Kinase Assay, recombinant JAK2. Format: biochemical. The conditions noted are these: 5 mM ATP. How it is done:
(§1) Recombinant JAK1, JAK2, JAK3 and TYK2 purchased from Carna Biosciences. The inhibition potency of compounds against JAK1, JAK2, JAK3 and TYK2 was assessed using Lance Ultra Kinase Assay.
(§2) In brief, recombinant kinases were pre-incubated in the presence or absence of compound at room temperature for 15 minutes. The reaction was initiated by the addition of 5 mM ATP and substrate peptide which could be phosphorylated by kinases in the reaction. After 60 minutes incubation, the reaction was stopped by the addition of the detection reagent mix containing EDTA. The fluorescence was measured at 615 nm and 665 nm, respectively with excitation wavelength at 320 nm. The calculated signal ratio of 665 nm/615 nm is proportional to the kinase activity.

A further data set deals with phosphorylation of STAT6. The data set is described as follows: Cellular p-STAT6 assay, IL-13 stimulated THP-1 cells, flow cytometry. Format: cell-based. The conditions noted are these: IL-13 10 ng/ml, read-out: pSTAT6 IC50. The method, then: To detect phosphorylated STAT6 (pSTAT6), THP-1 cells were harvested by centrifugation at 250 g for 5 min and resuspended in assay medium (RPMI1640+10% FBS) to 2×10^5 cells/well. Test compounds were applied to assay plates in serial dilution from 1 μM to 0.3 nM in DMSO. THP-1 cells were incubated with serial diluted compounds for 60 min at room temperature, followed by stimulation of interleukin (IL-13, 10 ng/ml) for 30 min, fixed in Cytofix buffer (BD Biosciences), and permeabilized in 90% methanol on ice. PE anti-pSTAT6 (BD Biosciences) antibodies were stained for 60 min at room temperature before being analyzed by flow cytometry. In the assay the compounds were thus diluted and dose-response curves for inhibition of the signal determine the IC50 for the compounds.

The nature of data set [1]: Metabolic stability in human liver microsome. Format: in vitro ADME. Particulars: 1 mg/mL microsomes, NADPH; for microsomal CLint at 1 μM: human, pooled human liver microsomes, pH 7.4, 1 μM compound. The method, then: (§3) Rat hepatocytes in male gender and human liver microsome were obtained from commercial vendors (e.g., BioreclamationIVT) and stored at −150° C. prior to use.
For metabolic stability assay with human liver microsome, 1 μM of each test compound was incubated with 1 mg/mL of microsomes (Pooled HLM with 20 mg/ml protein cone) at 37° C. in 250 μL of buffer (100 mM phosphate buffer, pH-7.4) containing 1 mM NADPH solution. […] was quenched with 5 volumes chilled acetonitrile at different time points 0, 0.5, 5, 10, 15, 20 and 30 min in a fresh 96 well plate. The quench plate was centrifuged at 4000 rpm for 15 min. 40 μL of supernatant was diluted to 200 μL with pure water and analyzed using LC-MS/MS. […]
Background: Liver microsomes are a subcellular fraction often used to study metabolism.

Data set [2] in a line: Metabolic stability in rat hepatocytes. It is filed as in vitro ADME. The conditions noted are these: 1 μM compound, male rat hepatocytes. How it is done:
as §3
For metabolic stability assay with rat heptatocytes, vials of cryopreserved hepatocytes or microsome were removed from storage, ensured that vials remain at cryogenic temperatures. 1 μM of each test compound (in Acetonitrile; 0.01% DMSO) was incubated with 250 μL of hepatocyte cells (1×10^6 cells/ml) in a 96 deep well plate. […] 40 μL of supernatant was diluted to 200 μL with pure water and analyzed using LC-MS/MS.
In vitro hepatocyte clearance was estimated based on determination of elimination half-life (T1/2) of compounds disappearance from their initial concentrations. Peak area ratios of each compound (test or control) to IS was calculated. Ln (% Control) versus Incubation Time (min) curve was plotted, and the slope of a linear fitting line was calculated. Drug elimination rate constant k (min−1), T1/2 (min), and in vitro intrinsic clearance CLint (μL/min/E6) was calculated according to the following equations: k=−slope T1/2=0.693/k CLint=k/Chep Where Chep (cells×μL^−1) is the cell concentration in the incubation system.

In the next data set the target is T2, TYK2 (Homo sapiens, UniProt P29597).
T2 construct: purchased Carna Biosciences
T2 sequence (P29597 whole entry): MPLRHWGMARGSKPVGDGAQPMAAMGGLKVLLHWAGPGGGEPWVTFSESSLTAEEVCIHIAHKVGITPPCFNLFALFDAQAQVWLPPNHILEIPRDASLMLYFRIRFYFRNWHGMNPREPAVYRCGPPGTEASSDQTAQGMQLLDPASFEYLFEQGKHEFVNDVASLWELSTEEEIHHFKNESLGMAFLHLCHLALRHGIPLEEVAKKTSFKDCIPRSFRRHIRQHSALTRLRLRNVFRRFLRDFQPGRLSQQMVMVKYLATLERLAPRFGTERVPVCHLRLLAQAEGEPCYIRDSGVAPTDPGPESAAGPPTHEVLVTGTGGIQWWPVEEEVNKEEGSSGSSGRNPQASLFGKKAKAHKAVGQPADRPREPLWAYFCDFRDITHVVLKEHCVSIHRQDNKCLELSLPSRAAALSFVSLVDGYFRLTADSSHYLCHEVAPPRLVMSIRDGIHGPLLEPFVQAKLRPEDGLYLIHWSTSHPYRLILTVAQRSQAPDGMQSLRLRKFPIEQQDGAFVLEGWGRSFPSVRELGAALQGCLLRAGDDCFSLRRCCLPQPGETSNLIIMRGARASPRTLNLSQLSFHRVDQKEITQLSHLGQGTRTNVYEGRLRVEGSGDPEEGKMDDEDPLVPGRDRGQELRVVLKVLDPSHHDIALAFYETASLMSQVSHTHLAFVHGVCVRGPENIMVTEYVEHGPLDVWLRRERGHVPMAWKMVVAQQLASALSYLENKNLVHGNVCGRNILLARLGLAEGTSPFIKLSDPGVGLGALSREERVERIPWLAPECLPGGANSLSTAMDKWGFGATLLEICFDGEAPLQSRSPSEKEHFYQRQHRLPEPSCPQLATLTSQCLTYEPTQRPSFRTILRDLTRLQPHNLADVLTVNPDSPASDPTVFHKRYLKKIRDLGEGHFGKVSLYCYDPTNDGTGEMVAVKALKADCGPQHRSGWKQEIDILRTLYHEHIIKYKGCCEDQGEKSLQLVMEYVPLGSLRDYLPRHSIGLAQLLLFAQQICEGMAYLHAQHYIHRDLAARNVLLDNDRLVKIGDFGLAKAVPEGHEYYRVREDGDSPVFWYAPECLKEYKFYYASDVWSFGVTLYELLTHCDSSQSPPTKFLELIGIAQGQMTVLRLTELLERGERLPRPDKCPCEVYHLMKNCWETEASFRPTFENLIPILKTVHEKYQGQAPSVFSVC
As to the kind of experiment: Lance Ultra Kinase Assay, recombinant TYK2. It is filed as biochemical. The conditions noted are these: 5 mM ATP. The method, then: as §1, §2

The next data set deals with T3, JAK3 (Homo sapiens, UniProt P52333).
T3 construct: purchased Carna Biosciences
T3 sequence (P52333 1-1124): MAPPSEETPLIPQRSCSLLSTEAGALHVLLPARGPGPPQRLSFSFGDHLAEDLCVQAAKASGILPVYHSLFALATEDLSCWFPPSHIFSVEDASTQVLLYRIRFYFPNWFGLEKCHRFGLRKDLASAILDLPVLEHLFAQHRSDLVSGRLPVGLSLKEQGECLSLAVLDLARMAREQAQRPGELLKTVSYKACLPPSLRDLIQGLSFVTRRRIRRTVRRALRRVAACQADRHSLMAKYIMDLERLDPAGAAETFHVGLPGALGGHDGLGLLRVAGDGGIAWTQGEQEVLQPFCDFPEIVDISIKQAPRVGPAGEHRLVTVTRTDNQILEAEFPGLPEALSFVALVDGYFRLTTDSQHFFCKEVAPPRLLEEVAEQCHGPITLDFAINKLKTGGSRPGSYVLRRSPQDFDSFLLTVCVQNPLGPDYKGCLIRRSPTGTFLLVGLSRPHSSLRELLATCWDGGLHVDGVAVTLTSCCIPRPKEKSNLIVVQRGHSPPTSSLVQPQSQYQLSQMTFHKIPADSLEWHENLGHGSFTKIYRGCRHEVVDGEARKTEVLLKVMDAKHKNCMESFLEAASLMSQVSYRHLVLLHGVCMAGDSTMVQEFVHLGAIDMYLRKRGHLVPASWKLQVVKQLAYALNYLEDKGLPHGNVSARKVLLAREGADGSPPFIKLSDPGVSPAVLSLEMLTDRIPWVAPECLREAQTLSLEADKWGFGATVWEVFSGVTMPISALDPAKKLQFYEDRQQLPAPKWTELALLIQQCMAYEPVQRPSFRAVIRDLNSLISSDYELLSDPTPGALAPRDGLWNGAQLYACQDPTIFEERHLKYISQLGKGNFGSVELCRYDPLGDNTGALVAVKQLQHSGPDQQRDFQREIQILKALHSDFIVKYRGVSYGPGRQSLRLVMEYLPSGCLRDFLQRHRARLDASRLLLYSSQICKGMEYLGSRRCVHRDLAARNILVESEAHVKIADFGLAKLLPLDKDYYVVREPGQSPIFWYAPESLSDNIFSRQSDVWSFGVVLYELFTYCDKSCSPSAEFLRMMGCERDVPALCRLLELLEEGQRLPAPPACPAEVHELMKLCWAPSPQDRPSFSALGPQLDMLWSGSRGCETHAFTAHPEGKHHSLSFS
The data set is described as follows: Lance Ultra Kinase Assay, recombinant JAK3. Format: biochemical. Particulars: 5 mM ATP. The method, then:
as §1, §2

A further data set deals with T4, JAK1 (Homo sapiens, UniProt P23458).
T4 construct: purchased Carna Biosciences
T4 sequence (P23458 whole entry): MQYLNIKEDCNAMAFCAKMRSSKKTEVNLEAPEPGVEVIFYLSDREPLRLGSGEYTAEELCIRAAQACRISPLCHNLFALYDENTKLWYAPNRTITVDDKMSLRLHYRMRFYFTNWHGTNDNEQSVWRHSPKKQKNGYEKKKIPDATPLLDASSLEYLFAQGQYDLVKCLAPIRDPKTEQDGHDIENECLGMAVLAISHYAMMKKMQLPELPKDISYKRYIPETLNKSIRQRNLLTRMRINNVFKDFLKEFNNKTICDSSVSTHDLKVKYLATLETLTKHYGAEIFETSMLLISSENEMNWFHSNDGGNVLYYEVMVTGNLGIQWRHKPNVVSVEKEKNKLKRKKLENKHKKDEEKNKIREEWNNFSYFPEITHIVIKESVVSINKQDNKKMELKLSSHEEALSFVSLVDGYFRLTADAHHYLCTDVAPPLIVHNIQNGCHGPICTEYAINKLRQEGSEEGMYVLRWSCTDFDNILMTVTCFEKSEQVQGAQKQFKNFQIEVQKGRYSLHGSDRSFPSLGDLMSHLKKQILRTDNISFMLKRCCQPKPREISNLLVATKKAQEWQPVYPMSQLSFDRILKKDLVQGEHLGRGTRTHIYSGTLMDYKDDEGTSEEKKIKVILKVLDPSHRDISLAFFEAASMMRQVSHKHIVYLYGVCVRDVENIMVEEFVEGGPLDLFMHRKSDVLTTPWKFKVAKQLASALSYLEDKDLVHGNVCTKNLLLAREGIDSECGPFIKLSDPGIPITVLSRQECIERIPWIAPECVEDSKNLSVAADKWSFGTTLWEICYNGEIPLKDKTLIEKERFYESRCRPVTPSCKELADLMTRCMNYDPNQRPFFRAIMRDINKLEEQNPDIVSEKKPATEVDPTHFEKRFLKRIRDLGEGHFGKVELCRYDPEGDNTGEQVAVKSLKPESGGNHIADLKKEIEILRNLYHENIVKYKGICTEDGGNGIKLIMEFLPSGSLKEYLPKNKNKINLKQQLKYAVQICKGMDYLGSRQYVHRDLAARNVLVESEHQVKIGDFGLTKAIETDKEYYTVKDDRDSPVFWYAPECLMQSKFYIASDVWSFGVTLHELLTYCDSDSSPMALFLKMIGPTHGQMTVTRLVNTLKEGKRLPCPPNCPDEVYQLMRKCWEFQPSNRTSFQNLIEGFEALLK
The data set is described as follows: Lance Ultra Kinase Assay, recombinant JAK1. It is filed as biochemical. The conditions noted are these: 5 mM ATP. The method, then:
as §1, §2

[3] abbreviates: Homo sapiens, THP-1, THP-1 cells.

Like-named read-outs stand apart in the source and are kept apart here. Bounds are passed on as bounds.

By IC50 is commonly meant the concentration that gives 50% inhibition. What is called microsomal CLint is the rate of metabolic loss divided by the concentration. Low readings indicate greater metabolic stability, high ones faster metabolism.

T1 sequence (O60674 whole entry): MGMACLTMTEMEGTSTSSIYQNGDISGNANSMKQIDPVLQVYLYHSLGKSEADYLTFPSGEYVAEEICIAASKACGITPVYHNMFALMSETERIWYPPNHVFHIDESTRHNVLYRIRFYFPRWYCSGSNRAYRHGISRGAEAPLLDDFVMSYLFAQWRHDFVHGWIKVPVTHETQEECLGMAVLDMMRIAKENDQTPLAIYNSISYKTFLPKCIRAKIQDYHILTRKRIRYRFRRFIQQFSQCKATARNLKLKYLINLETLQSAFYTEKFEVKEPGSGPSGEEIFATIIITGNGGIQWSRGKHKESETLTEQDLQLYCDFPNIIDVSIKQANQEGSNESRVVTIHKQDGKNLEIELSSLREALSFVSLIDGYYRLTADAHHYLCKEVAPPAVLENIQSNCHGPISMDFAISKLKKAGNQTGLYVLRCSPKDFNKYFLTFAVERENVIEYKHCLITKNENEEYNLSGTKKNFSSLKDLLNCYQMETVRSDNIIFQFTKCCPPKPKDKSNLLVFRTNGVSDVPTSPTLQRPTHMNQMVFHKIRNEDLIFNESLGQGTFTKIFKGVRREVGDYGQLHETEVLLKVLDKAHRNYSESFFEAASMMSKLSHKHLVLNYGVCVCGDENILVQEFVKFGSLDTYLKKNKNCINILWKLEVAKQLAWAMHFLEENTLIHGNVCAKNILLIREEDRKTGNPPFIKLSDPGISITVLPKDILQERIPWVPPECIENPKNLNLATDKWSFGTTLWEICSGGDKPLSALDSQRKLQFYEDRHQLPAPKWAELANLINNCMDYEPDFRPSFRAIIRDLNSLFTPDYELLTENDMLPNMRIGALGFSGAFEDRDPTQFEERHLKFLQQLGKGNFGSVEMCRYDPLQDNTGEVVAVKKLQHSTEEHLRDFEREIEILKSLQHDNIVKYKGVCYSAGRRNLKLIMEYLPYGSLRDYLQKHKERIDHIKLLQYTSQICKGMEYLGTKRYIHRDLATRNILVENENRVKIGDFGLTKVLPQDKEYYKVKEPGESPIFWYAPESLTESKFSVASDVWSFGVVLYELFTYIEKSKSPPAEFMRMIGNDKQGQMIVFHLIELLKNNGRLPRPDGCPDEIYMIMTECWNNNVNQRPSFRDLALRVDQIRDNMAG

`COC[C@H](C(=O)Nc1cccc2c(-c3nc(Nc4cnn(C5CCOC5)c4)ncc3F)c[nH]c12)N1CCN(C)CC1` (single isomer, unassigned; isomer 1) [Example 30]: the IC50 at JAK2 is 95 nM; with phosphorylation of STAT6 (setting [3]), 10.3 nM; at TYK2, 1180 nM; on JAK3 it was above 10000 nM; at JAK1, 0.15 nM. Also, the microsomal CLint at 1 μM in data set [1] turned out to be 13.5 µL/min/mg. Also, the “Rat Hepatocyte CLint” value in data set [2] came to 4.4 μL/min/10^6 cells.

Consider `COC[C@H](C(=O)Nc1cccc2c(-c3nc(Nc4cnn(C5CCOC5)c4)ncc3F)c[nH]c12)N1CCN(C)CC1` (single isomer, unassigned; isomer 2) [Example 33], for which the IC50 was 110 nM on JAK2; 11.1 nM with phosphorylation of STAT6 (THP-1 cells); 2170 nM on TYK2; above 10000 nM at JAK3; 0.14 nM on JAK1. In addition, the “Human liver microsome CLint” value in data set [1] (1 μM compound) came to 11.1 µL/min/mg. For the same compound, the “Rat Hepatocyte CLint” value in data set [2] amounted to 6.8 μL/min/10^6 cells.

Regarding `COC[C@H](C(=O)Nc1cccc2c(-c3nc(Nc4ccc(CO)nc4)ncc3F)c[nH]c12)N1CCN(C)CC1` [Example 1, (R)-N-(3-(5-fluoro-2-((6-(hydroxymethyl)pyridin-3-yl)amino)pyrimidin-4-yl)-1H-indol-7-yl)-3-methoxy-2-(4-methylpiperazin-1-yl)propanamide], the IC50 is 85 nM on JAK2; 4 nM with phosphorylation of STAT6 (setting [3]); 644 nM at TYK2; above 10000 nM on JAK3; 0.13 nM on JAK1. In data set [1], this compound showed a microsomal CLint at 1 μM of 4.9 µL/min/mg. The “Rat Hepatocyte CLint” value in data set [2] turned out to be 68.8 μL/min/10^6 cells.

For the compound `COC[C@H](C(=O)Nc1cccc2c(-c3nc(Nc4ccnc(C(=O)OC)c4)ncc3F)c[nH]c12)N1CCN(C)CC1` [Example 4, Methyl-(R)-4-((5-fluoro-4-(7-(3-methoxy-2-(4-methylpiperazin-1-yl)propanamido)-1H-indol-3-yl)pyrimidin-2-yl)amino)picolinate], the IC50 on JAK2 is 81 nM; in the data set with phosphorylation of STAT6 (setting [3]), 5.1 nM; at TYK2, 1830 nM; at JAK3 it was above 10000 nM; on JAK1, 0.26 nM. Moreover, in data set [1], the microsomal CLint at 1 μM worked out at 14.4 µL/min/mg. The “Rat Hepatocyte CLint” value in data set [2] was above 300 μL/min/10^6 cells.

Regarding `COC[C@H](C(=O)Nc1cccc2c(-c3nc(Nc4ccc(NC(=O)OC)nc4)ncc3F)c[nH]c12)N1CCN(C)CC1` [Example 52, methyl (R)-(5-((5-fluoro-4-(7-(3-methoxy-2-(4-methylpiperazin-1-yl)propanamido)-1H-indol-3-yl)pyrimidin-2-yl)amino)pyridin-2-yl)carbamate], the IC50 at JAK2 is 363 nM; in the data set on phosphorylation of STAT6 (setting [3]), 15 nM; at TYK2, 2170 nM; on JAK3, above 10000 nM; on JAK1, 0.43 nM.

`COC[C@H](C(=O)Nc1cccc2c(-c3nc(Nc4ccc(OCc5ncco5)nc4)ncc3F)c[nH]c12)N1CCN(C)CC1` [Example 54, (R)-N-(3-(5-fluoro-2-((6-(oxazol-2-ylmethoxy)pyridin-3-yl)amino)pyrimidin-4-yl)-1H-indol-7-yl)-3-methoxy-2-(4-methylpiperazin-1-yl)propanamide]: the IC50 is 219 nM at JAK2; 15.3 nM in the data set with phosphorylation of STAT6 (setting [3]); 4880 nM on TYK2; above 10000 nM on JAK3; 0.86 nM at JAK1.

For `COC[C@H](C(=O)Nc1cccc2c(-c3nc(Nc4cccc(CCC(=O)OC)n4)ncc3F)c[nH]c12)N1CCN(C)CC1` [Example 55, methyl (R)-3-(6-((5-fluoro-4-(7-(3-methoxy-2-(4-methylpiperazin-1-yl)propanamido)-1H-indol-3-yl)pyrimidin-2-yl)amino)pyridin-2-yl)propanoate], the IC50 on JAK2 was 2710 nM; with phosphorylation of STAT6 (setting [3]) it was 15.3 nM; at TYK2 it was above 10000 nM; on JAK3, above 10000 nM; on JAK1, 12.8 nM.

For `COC[C@H](C(=O)Nc1cccc2c(-c3nc(Nc4cc(CO)c5cn[nH]c5c4)ncc3F)c[nH]c12)N1CCN(C)CC1` [Example 61, (R)-N-(3-(5-fluoro-2-((4-(hydroxymethyl)-1H-indazol-6-yl)amino)pyrimidin-4-yl)-1H-indol-7-yl)-3-methoxy-2-(4-methylpiperazin-1-yl)propanamide], the IC50 was found to be 8 nM at JAK2; 17.7 nM in the data set on phosphorylation of STAT6 (setting [3]); 194 nM on TYK2; 3590 nM at JAK3; 0.11 nM on JAK1.

For `COCCOc1ccc(Nc2ncc(F)c(-c3c[nH]c4c(NC(=O)[C@@H](COC)N5CCN(C)CC5)cccc34)n2)cn1` [Example 65, (R)-N-(3-(5-fluoro-2-((6-(2-methoxyethoxy)pyridin-3-yl)amino)pyrimidin-4-yl)-1H-indol-7-yl)-3-methoxy-2-(4-methylpiperazin-1-yl)propanamide], the concentration for half-maximal inhibition (IC50) was 198 nM at JAK2; 18.8 nM in the data set with phosphorylation of STAT6 (setting [3]); 1260 nM at TYK2; above 10000 nM on JAK3; 0.32 nM on JAK1.

As for `CNC(=O)COc1cncc(Nc2ncc(F)c(-c3c[nH]c4c(NC(=O)[C@@H](COC)N5CCN(C)CC5)cccc34)n2)c1` [Example 68, (R)-N-(3-(5-fluoro-2-((5-(2-(methylamino)-2-oxoethoxy)pyridin-3-yl)amino)pyrimidin-4-yl)-1H-indol-7-yl)-3-methoxy-2-(4-methylpiperazin-1-yl)propanamide], the IC50 at JAK2 amounted to 71 nM; with phosphorylation of STAT6 (setting [3]), 20.9 nM; on TYK2, 1230 nM; on JAK3 it was 5360 nM; on JAK1 it was 0.22 nM.
